Results published in patent US7560558B2, “Compound having TGFβ inhibitory activity and medicinal composition containing the same” (Kirin Beer Kabushiki Kaisha, priority 2002, dated 2009).
Structures can show the parent of a compound that is named as a salt.

System: TGFβ signal
Experiment: TGFβ signal inhibitory activity, (SBE)4-Luc luciferase reporter in A549 cells
Format: cell-based, human
Conditions: TGFβ-1 2 ng/ml, A549 (SBE)4-Luc; for inhibition at 3 µM / inhibition at 10 µM: Homo sapiens, A549, 4 h; for TGFβ inhibition, %: 4 hr
Protocol: The TGFβ signal inhibitory activity of compounds according to the present invention was evaluated according to the method described in J. Boil. Chem., 273, 21145-21152 (1998). Specifically, a luciferase gene driving by four tandem binding sequences of Smad2/3, which are TGFβ signal transfer factors was used as a reporter gene ((SBE)4-Luc). This reporter gene was introduced into human lung cancer epithelial cells (A549) (available from ATCC) to establish a stable cell line expressing its gene. A test compound and TGFβ-1 (2 ng/ml) were added to the cells, and the mixture was cultured for 4 hr. Compounds according to the present invention synthesized in the above working examples were used as the test compound. After the culture, the luciferase activity of cells was measured by a chemiluminescence method (Steady Glo (trademark) luciferase assay system available from Promega). Likewise, the luciferase activity was measured for control cells, that is, cells which had been cultured with the addition of TGFβ only, and cells which had been cultured without the addition of TGFβ and the test compound. The TGFβ inhibition rate (%) was calculated based on the results of measurement according to the following equation: TGFβ inhibition rate (%)=(A−B)/(A−C)×100 wherein A, B and C have the following respective meanings: A: luciferase activity in the case where TGFβ1 was added and the test compound was not added (relative luciferase unit); B: luciferase activity in the case where both TGFβ1 and the test compound were added (relative luciferase unit); and C: luciferase activity in the case where neither TGFβ1 nor the test compound was added (relative luciferase unit). The test was carried out for each of a test compound concentration of 3 μM and a test compound concentration of 10 μM. For given test compounds, the test was further carried out for a test compound concentration of 1 μM.

Compound	inhibition at 3 µM (test compound 3 μM) [%]	inhibition at 10 µM (test compound 10 μM) [%]	TGFβ inhibition, % (test compound 3 μM) [%]	TGFβ inhibition, % (test compound 10 μM) [%]
COc1ccc(Oc2ccnc3cc(OC)c(OC)cc23)c(C(C)=O)c1 [Compound 36, 1-{2-[(6,7-Dimethoxy-4-quinolyl)oxy]-5-methoxyphenyl}-1-ethanone]	95	100	–	–
COc1cc2nccc(Oc3ccccc3C(=O)c3ccccc3)c2cc1OC [Compound 62, {2-[(6,7-Dimethoxy-4-quinolyl)oxy]-phenyl}(phenyl)-methanone]	43	85	–	–
COc1cc2nccc(Oc3ccccc3C(=O)c3ccccc3)c2cc1OC.Cl [Compound 63, {2-[(6,7-Dimethoxy-4-quinolyl)oxy]-phenyl}(phenyl)-methanone hydrochloride]	–	–	57	91
COc1cc2nccc(Oc3ccc(Cl)cc3C(=O)c3ccccc3)c2cc1OC [Compound 68, {5-Chloro-2-[(6,7-dimethoxy-4-quinolyl)oxy]phenyl}-(phenyl)methanone]	89	100	–	–
COc1cc2nccc(Oc3ccc(Cl)cc3C(=O)c3ccccc3)c2cc1OC.Cl [Compound 69, {5-Chloro-2-[(6,7-dimethoxy-4-quinolyl)oxy]phenyl}-(phenyl)methanone hydrochloride]	–	–	100	100
COc1cc2nccc(Oc3ccc(C)cc3C(=O)c3ccccc3)c2cc1OC [Compound 71, {2-[(6,7-Dimethoxy-4-quinolyl)oxy]-5-methylphenyl}-(phenyl)methanone]	79	100	–	–
COc1cc2nccc(Oc3ccc(C)cc3C(=O)c3ccccc3)c2cc1OC.Cl [Compound 72, {2-[(6,7-Dimethoxy-4-quinolyl)oxy]-5-methylphenyl}-(phenyl)methanone hydrochloride]	–	–	98	100
COc1cc2nccc(Oc3cc(C)c(C)cc3C(=O)c3ccccc3)c2cc1OC [Compound 76, {2-[(6,7-Dimethoxy-4-quinolyl)oxy]-4,5-dimethylphenyl}-(phenyl)methanone hydrochloride]	95	100	–	–
COc1ccc(Oc2ccnc3cc(OC)c(OC)cc23)c(C(C)=O)c1.Cl [Compound 177, 1-[2-(6,7-Dimethoxy-quinolin-4-yloxy)-5-methoxy-phenyl]-ethanone hydrochloride]	–	–	94	100
COc1cc2nccc(Oc3cc(C)c(C)cc3/C(C)=N/O)c2cc1OC [Compound 195, 1-[2-(6,7-Dimethoxy-quinolin-4-yloxy)-4,5-dimethyl-phenyl]-ethanone oxime]	–	100	–	–
C=CCO/N=C(\C)c1cc(C)c(C)cc1Oc1ccnc2cc(OC)c(OC)cc12 [Compound 197, 1-[2-(6,7-Dimethoxy-quinolin-4-yloxy)-4,5-dimethyl-phenyl]-ethanone o-allyl-oxime]	40	–	–	–
COc1cc2nccc(Oc3ccc(F)nc3I)c2cc1OC [Compound 211, 4-(6-Fluoro-2-iodo-pyridin-3-yloxy)-6,7-dimethoxy-quinoline]	87	100	–	–
COc1cc2c(Oc3cc(C)c(C)cc3C(C)=O)ccnc2cc1OCCCN1CCOCC1 [Compound 319, 1-{2-[6-Methoxy-7-(3-morpholin-4-yl-propoxy)-quinolin-4-yloxy]-4,5-dimethyl-phenyl}-ethanone]	–	100	–	–
COc1cc2c(Oc3cc(C)c(C)cc3C(C)=O)ccnc2cc1OCCCN1CCOCC1.Cl.Cl [Compound 320, 1-{2-[6-Methoxy-7-(3-morpholin-4-yl-propoxy)-quinolin-4-yloxy]-4,5-dimethyl-phenyl}-ethanone hydrochloride]	–	–	100	100
COc1cc2c(Oc3cc4ccccc4nc3C)ccnc2cc1OCCN1CCOCC1 [Compound 365, 6-Methoxy-4-(2-methyl-quinolin-3-yloxy)-7-(2-morpholin-4-yl-ethoxy)-quinoline]	100	100	–	–
COc1cc2c(Oc3cc4ccccc4nc3C)ccnc2cc1OCCN1CCOCC1.Cl.Cl.Cl [Compound 366, 6-Methoxy-4-(2-methyl-quinolin-3-yloxy)-7-(2-morpholin-4-yl-ethoxy)-quinoline hydrochloride]	–	–	100	100
